Laboratory results reported in patent US5698560A, “Imidazoquinazoline derivatives” (Kyowa Hakko Kogyo Co., Ltd., priority 1995, dated 1997).
Where a name gives a salt, the structure may show the parent alone.

Columns and labels:
[1] = molecular target: T1, PDE V (cGMP-specific PDE) (Canis lupus familiaris, UniProt O77746); experiment: inhibitory activity on PDE V derived from canine tracheal smooth muscle; type: biochemical; conditions: 1 nM compound; substrate 1.0 μM [3H]cGMP; pH 7.2; 30° C., 10 to 30 minutes; inhibitor dissolved in 1.7% DMSO; read-out: PDE V Inhibitory activity, inhibition rate (%)
T1 construct: PDE V (cGMP-specific PDE) was purified from canine tracheal smooth muscle; from tissue; host or cells: canine tracheal smooth muscle
Experimental: The inhibitory activity on PDE derived from canine tracheal smooth muscle
According to the method of Torphy et al. [Mol. Pharmacol., 37, 206 (1990)], PDE V (cGMP-specific PDE) was purified from canine tracheal smooth muscle.
The activity was measured based on the method of Kincaid et al. [J. D. Corbin et al., Methods Enzymol., 159, 457 (1988), Academic Press, New York]. The measurement was carried out using, as a substrate, 1.0 μM [^3 H]cGMP, and the reaction was carried out in a buffer having the following composition:
50 mM N,N-bis(2-hydroxyethyl)-2-aminoethanesulfonic acid (pH 7.2), 1 mM MgCl2, 0.1 mg/ml soybean trypsin inhibitor
The reaction was started by addition of an enzyme and stopped by addition of hydrochloric acid after 10 to 30 minutes at 30° C. Thereafter, sodium hydroxide was added for neutralization and 5'-GMP was converted into guanosine using 5'-nucleotidase. The reaction solution was subjected to DEAE-Sephadex A-25 column. [^3 H]Guanosine was eluted with distilled water and the radioactivity was measured with a liquid scintillation counter. The inhibitor was dissolved in 1.7% DMSO.

rats = experiment: hypotensive effect in anesthetized rats (duodenal administration); type: in vivo, male Sprague-Dawley rat; conditions: rat, i.d., within 30 minutes, average of N = 2
Experimental: The hypotensive effect in rats
After a male Sprague-Dawley rat anesthetized with urethane was fixed in the supine position, a cannula was inserted into trachea and the rat was artificially ventilated under the conditions of a tidal volume of […] and 60 breathes/min. The carotid artery and the duodenum were cannulated for measuring blood pressure and administering a drug, respectively. The drug was dissolved in distilled water and administered duodenally using the above cannula. Mean blood pressure (mBP) until 30 minutes after the drug-administration was measured and the maximum loweing rate (%) from the value before the drug-administration (100%) was determined. The average value of 2 samples was calculated in each dose. No change of mBP was observed during 30 minutes in case of administering distilled water.

`CCn1c(=O)[nH]c2cc3c(NCc4ccccc4CN4CCOCC4)ncnc3cc21` [Compound 1, 3-Ethyl-8-[2-(morpholinomethyl)benzylamino]-2,3-dihydro-1H-imidazo[4,5-g]quinazolin-2-one.2 hydrochloride] gave an inhibition at 0.001 µM [1] of 74%.
`CCn1c(=S)[nH]c2cc3c(NCc4ccccc4CN4CCOCC4)ncnc3cc21` [Compound 4, 3-Ethyl-8-[2-(morpholinomethyl)benzylamino]-2,3-dihydro-1H-imidazo[4,5-g]quinazoline-2-thione.2 hydrochloride] was tested, and the inhibition at 0.001 µM [1] was 97%, the “Hypotensive activity, Maximum lowering rate (%) of mean blood pressure (mBP)” value (rats; 0.1 mg/kg) was 9.0% and the “Hypotensive activity, Maximum lowering rate (%) of mean blood pressure (mBP)” value (rats; 1 mg/kg) was 21.5%. For the same molecule, the “Hypotensive activity, Maximum lowering rate (%) of mean blood pressure (mBP)” value (rats; 10 mg/kg) was 25.1%.
`CCn1c(=S)[nH]c2cc3c(NCc4ccc(CN5CCCCC5)cc4)ncnc3cc21` [Compound 15, 3-Ethyl-8-[4-(piperidinomethyl)benzylamino]-2,3-dihydro-1H-imidazo[4,5-g]quinazoline-2-thione.2 hydrochloride] showed an inhibition at 0.001 µM [1] of 63%.
With `CCn1c(=O)[nH]c2cc3c(NCc4ccccc4OCCN4CCOCC4)ncnc3cc21` [Compound 21, 3-Ethyl-8-[2-(2-morpholinoethoxy)benzylamino]-2,3-dihydro-1H-imidazo[4,5-g]quinazolin-2-one.2 hydrochloride] the inhibition at 0.001 µM [1] was 29%.
For `CCn1c(=S)[nH]c2cc3c(NCc4ccccc4OCCN4CCOCC4)ncnc3cc21` [Compound 29, 3-Ethyl-8-[2-(2-morpholinoethoxy)benzylamino]-2,3-dihydro-1H-imidazo[4,5-g]quinazoline-2-thione.2 hydrochloride], the inhibition at 0.001 µM [1] was 91%.
Work on `CCn1c(=S)[nH]c2cc3c(NCc4ccccc4OCCN4CCN(C)CC4)ncnc3cc21` [Compound 32, 3-Ethyl-8-{2-[2-(4-methylpiperazin-1-yl)ethoxy]benzylamino}-2,3-dihydro-1H-imidazo[4,5-g]quinazoline-2-thione.3 hydrochloride] yielded an inhibition at 0.001 µM [1] of 79%.
`CCn1c(=S)[nH]c2cc3c(NCc4ccc(OCCN5CCOCC5)cc4)ncnc3cc21` [Compound 42, 3-Ethyl-8-[4-(2-morpholinoethoxy)benzylamino]-2,3-dihydro-1H-imidazo[4,5-g]quinazoline-2-thione.2 hydrochloride] gave an inhibition at 0.001 µM [1] of 89%.
`CCn1c(=S)[nH]c2cc3c(NCc4ccccc4CN4CC=CCC4)ncnc3cc21` [Compound 71, 3-Ethyl-8-[2-(1,2,3,6-tetrahydropyridin-1-ylmethyl)benzylamino]-2,3-dihydro-1H-imidazo[4,5-g]quinazoline-2-thione.2 hydrochloride] was tested, and the inhibition at 0.001 µM [1] was 97%, the “Hypotensive activity, Maximum lowering rate (%) of mean blood pressure (mBP)” value (rats; 0.1 mg/kg) was 16.1% and the “Hypotensive activity, Maximum lowering rate (%) of mean blood pressure (mBP)” value (rats; 1 mg/kg) was 22.8%. For the same molecule, the “Hypotensive activity, Maximum lowering rate (%) of mean blood pressure (mBP)” value (rats; 10 mg/kg) was 23.2%.
For `CCOC(=O)C1CCN(Cc2ccccc2CNc2ncnc3cc4c(cc23)[nH]c(=S)n4CC)CC1` [Compound 75, 3-Ethyl-8-{2-[4-(ethoxycarbonyl)piperidin-1-ylmethyl]benzylamino}-2,3-dihydro-1H-imidazo[4,5-g]quinazoline-2-thione.2 hydrochloride], the inhibition at 0.001 µM [1] was 92%.
Molecule `CCOC(=O)C1CCN(Cc2ccccc2CNc2ncnc3cc4c(cc23)[nH]c(=O)n4CC)CC1` [Compound 76, 3-Ethyl-8-{2-[4-(ethoxycarbonyl)piperidin-1-ylmethyl]benzylamino}-2,3-dihydro-1H-imidazo[4,5-g]quinazolin-2-one.2 hydrochloride] has an inhibition at 0.001 µM [1] of 88%.
`CCn1c(=S)[nH]c2cc3c(NCc4cccc(OCCCN5CCOCC5)c4)ncnc3cc21` [Compound 79, 3-Ethyl-8-[3-(3-morpholinopropoxy)benzylamino]-2,3-dihydro-1H-imidazo[4,5-g]quinazoline-2-thione.2 hydrochloride] gave an inhibition at 0.001 µM [1] of 95%.
`CCN(CC)CCCOc1cccc(CNc2ncnc3cc4c(cc23)[nH]c(=S)n4CC)c1` [Compound 80, 8-{3-[3-(Diethylamino)propoxy]benzylamino}-3-ethyl-2,3-dihydro-1H-imidazo[4,5-g]quinazoline-2-thione.2 hydrochloride] showed an inhibition at 0.001 µM [1] of 92%.
